The values below are quoted from earlier work in patent US20240115547A1, “PSYCHOTROPIC AGENTS AND USES THEREOF” (LB PHARMACEUTICALS INC., priority 2021, published 2024).

One data set relates to Striatal D2/D3 Receptor. As to conditions: in vivo; cited from earlier work.
The conditions of data set [1]: administration of 50 mg amisulpride, previously published (FIG. 4A); cited from earlier work.
The target of a further data set is D1 receptor subtype (Homo sapiens, UniProt P21728). As to conditions: cited from earlier work.
D1 receptor subtype, sequence (P21728 whole entry): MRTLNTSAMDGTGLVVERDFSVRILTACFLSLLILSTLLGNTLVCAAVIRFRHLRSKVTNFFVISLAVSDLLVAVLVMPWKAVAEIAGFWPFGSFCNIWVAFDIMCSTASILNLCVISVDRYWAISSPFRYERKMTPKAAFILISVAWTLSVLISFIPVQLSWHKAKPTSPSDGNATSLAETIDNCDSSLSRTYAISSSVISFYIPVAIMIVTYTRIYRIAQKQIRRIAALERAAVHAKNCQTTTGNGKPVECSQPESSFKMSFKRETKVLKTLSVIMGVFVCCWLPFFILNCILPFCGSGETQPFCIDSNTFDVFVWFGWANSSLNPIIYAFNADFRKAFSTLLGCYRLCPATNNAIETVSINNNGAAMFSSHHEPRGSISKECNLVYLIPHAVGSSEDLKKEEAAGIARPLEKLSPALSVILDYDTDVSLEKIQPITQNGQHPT
For the next data set, the target named is T1, D4 receptor subtype (Homo sapiens, UniProt P21917).
T1 sequence (P21917 1-419): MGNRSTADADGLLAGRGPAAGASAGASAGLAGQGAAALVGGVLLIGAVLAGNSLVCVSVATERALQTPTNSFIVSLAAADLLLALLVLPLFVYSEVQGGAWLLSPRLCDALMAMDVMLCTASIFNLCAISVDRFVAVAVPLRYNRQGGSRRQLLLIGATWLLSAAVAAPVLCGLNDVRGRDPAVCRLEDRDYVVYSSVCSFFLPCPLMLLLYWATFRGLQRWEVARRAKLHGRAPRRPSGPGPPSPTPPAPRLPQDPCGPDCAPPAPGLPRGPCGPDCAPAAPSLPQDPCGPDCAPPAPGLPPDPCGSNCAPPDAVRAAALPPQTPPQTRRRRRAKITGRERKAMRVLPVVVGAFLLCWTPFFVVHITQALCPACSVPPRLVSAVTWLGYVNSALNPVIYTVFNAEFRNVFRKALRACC
As to conditions: cited from earlier work.

Another data set has as its target D5 receptor subtype (Homo sapiens, UniProt P21918). As to conditions: cited from earlier work.
In the next data set the target is 5-HT2a receptor (Homo sapiens, UniProt P28223). As to conditions: compared to other antipsychotics; cited from earlier work.
5-HT2a receptor, sequence (P28223 whole entry): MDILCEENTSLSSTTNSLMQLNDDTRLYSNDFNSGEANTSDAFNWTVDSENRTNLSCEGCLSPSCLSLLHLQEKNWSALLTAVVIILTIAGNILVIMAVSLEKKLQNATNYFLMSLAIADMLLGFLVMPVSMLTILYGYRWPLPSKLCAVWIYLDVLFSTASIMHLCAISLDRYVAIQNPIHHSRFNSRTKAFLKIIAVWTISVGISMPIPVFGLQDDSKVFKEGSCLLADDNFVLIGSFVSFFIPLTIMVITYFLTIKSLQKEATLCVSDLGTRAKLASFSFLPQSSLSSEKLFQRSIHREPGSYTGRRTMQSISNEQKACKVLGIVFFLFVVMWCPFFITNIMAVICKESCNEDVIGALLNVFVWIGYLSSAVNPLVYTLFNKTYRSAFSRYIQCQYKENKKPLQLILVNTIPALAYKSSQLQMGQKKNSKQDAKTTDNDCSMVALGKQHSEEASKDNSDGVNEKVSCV
For data set [2] the following is noted: 2014 study; cited from earlier work.

D5 receptor subtype, sequence (P21918 whole entry): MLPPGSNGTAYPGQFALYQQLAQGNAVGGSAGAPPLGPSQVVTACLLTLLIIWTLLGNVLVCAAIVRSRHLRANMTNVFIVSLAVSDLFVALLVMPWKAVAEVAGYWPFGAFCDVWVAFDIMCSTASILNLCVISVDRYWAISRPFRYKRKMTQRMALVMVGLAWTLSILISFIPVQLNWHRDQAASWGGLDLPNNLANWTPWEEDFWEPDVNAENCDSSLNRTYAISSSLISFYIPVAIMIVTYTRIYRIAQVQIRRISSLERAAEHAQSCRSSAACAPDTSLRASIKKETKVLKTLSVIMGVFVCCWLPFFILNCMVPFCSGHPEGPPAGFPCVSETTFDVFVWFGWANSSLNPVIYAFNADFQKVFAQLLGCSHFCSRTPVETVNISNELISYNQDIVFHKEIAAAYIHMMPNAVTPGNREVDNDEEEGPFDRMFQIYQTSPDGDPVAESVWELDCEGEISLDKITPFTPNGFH

As to `CCN1CCCC1CNC(=O)c1cc(S(=O)(=O)CC)c(N)cc1OC` (stereo not shown) [amisulpride, 4-amino-N-(((1-ethyl-2-pyrrolidinyl)methyl)-5-(ethylsulfonyl))-2-methoxybenzamide], the “dose required for 75% dopamine (e.g., D2/D3) RO” value in the data set with Striatal D2/D3 Receptor is reported as “more than 400 mg”. Moreover, in data set [1], the AUC was 603 ngh/mL. Also, on D1 receptor subtype, the “affinity for D1 receptor subtype” value is reported as “without any affinity”. Further, the “affinity for D4 receptor subtype” value at D4 receptor subtype is “without any affinity”. The “affinity for D5 receptor subtype” value on D5 receptor subtype is on record as “without any affinity”. Further, the “activity at the 5-HT2a receptor” value on 5-HT2a receptor was “not noted to have any activity”. The “passive diffusion across a PAMPA membrane (measured as Pe)” value in data set [2] is recorded as “lowest of 30 psychiatric drugs tested”.
